According to publication PMC9468151, “Identification of a binding site on soluble RANKL that can be targeted to inhibit soluble RANK-RANKL interactions and treat osteoporosis” (Nature Communications, 2022):
Values joined by “and” are separate entries in the source; they are usually repeats but may differ in a detail not shown here. Identical values can stand only once.

Tests used:
[1] = molecular target: T1, binary-RANKL (L-RANKL, mRANKL mimic) (Rattus norvegicus, UniProt Q9ESE2, D175N); experiment: Isothermal titration calorimetry (ITC) with binary-RANKL; assay type: binding; conditions: 25 °C, PBS 0.8% DMSO; read-out: ITC KD with binary-RANKL (printed +mRANKL in Fig. 3a)
T1 construct: (3) mRANKL (sRANKL-GSGS-sRANKL, rat 159-318 aa); His6-sumo (N); made in house; host or cells: Escherichia coli BL21 (DE3)
T1 sequence (Q9ESE2 with tags, fused parts or gaps D175N): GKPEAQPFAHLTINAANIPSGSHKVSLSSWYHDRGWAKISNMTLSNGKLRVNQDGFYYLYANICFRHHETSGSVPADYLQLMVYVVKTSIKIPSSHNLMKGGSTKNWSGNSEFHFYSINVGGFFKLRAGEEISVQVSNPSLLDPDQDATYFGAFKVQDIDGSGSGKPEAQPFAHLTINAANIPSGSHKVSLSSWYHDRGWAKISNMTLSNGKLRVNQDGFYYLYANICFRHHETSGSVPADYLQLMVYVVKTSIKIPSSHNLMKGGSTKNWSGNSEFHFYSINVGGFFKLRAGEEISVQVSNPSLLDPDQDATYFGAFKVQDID
Method: ITC titrations were performed on the MicroCal iTC200 system at 25 °C[55]. Working stocks of compound S3-15 were prepared in 100% DMSO at 50 mM and then diluted to 500 μM at PBS with final DMSO concentration at 0.8% (v/v). PBS with 0.8% DMSO was used as ITC buffer. Purified sRANKL or L-RANKL protein was buffer exchanged into same ITC buffer using a Millipore spin column. S3-15 at 500 μM was loaded into a syringe and protein was loaded into an isothermal calorimeter cell. During titration, S3-15 in the […] was injected (2 μL per injection, 25 injections in total, and 180 s between each injection) regularly from a rotating syringe into protein solution in the isothermal calorimeter cell. The sample cell was stirred at 385 rpm. Reference cell power was set to 5 μcal/s. Control experiments were conducted under the same conditions using buffer solution instead of S3-15. Data were analyzed using a one-site binding model in Origin 7.1 software for ITC version 7.0 (MicroCal). The dissociation constant, KD, was calculated according to equation KD = 1/K. All other parameters, K ([…]), N (varying the stoichiometry), ΔH (enthalpy of the reaction), and ΔG ([…] of the reaction) were determined from the titration data.

OVX rats = experiment: Rat body weight and organ coefficients determination; assay type: in vivo; conditions: for body weight (fig. S7d): in g (unit assumed)
Method: We dissected all rats after 12 weeks of treatment, then took the main organs like heart, liver, spleen, lung, kidney, and thymus. All the organs were removed the attached adipose and weighted with an electronic balance (Sartorius, Germany). Mice spleen and cervical lymph node were also taken and weighted. Organ index (mg/g) was calculated as the following formula: Organ coefficients=Organweight(mg)/Ratormousetotalweight(g)

[2] = tested on: WT sRANKL or Q238A sRANKL induced osteoclast formation; experiment: Rescue experiment: osteoclast formation induced by WT or Q238A sRANKL; assay type: cell-based, mouse
Method: For the osteoclast formation induced by WT and Q238A sRANKL experiments, BMMs were seeded in 96-well plate in density of 6 × 10^3 cell/ well with α-MEM completed medium containing 10 ng/mL M-CSF for 24 h. Then the cells were treated with 0 μM, 0.3 μM, 3 μM and 10 μM and stimulated with 100 ng/mLWT sRANKL or Q238A sRANKL respectively. For the osteoclast formation induced by WT, W194A, and H226A sRANKL experiments, cells were stimulated with 100 ng/mL WT sRANKL combined W194A, H226A sRANKL in different concentrations (50 ng/mL, 200 ng/mL, and 400 ng/mL) with or without 10 μM S3-15. After 5 days, osteoclasts were formed, and applied TRAP-staining as described above. TRAP-positive multinucleated cells with > 3 nuclei were scored as osteoclasts.

[3] = molecular target: mouse mRANKL and mouse OPG (Mus musculus, UniProt O35235); experiment: mRANKL-OPG binding, HEK 293T cells with full length mouse RANKL; assay type: cell-based
Sequence of mouse mRANKL and mouse OPG (O35235 whole entry): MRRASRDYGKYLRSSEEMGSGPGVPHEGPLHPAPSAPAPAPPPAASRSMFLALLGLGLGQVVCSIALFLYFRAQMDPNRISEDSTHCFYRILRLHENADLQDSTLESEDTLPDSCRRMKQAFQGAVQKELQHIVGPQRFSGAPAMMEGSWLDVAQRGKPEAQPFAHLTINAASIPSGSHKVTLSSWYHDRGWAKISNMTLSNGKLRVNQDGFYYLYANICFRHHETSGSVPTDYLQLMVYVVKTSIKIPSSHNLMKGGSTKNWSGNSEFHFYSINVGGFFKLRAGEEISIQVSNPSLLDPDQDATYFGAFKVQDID
Method: mRANKL-OPG: MC3T3-E1 cells were differentiated by osteoblast differentiation medium (Pythonbio, China) for 2 days. Then cells were exposed to 1 M NaCl for 5 minutes to remove endogenous OPG, washed once in PBS, and fixed with 70% ethanol for 5 minutes at 4 °C. Fixed cells were wash once by PBS and then exposed to PBS that containing 100 ng mouse OPG (Sino, China) or 100 ng mouse OPG with 1 μM S3-15 and incubated for an additional 30 min at 4 °C. Cell layers were washed 2 times with PBS and lysed with 1% triton in PBS. The concentration of OPG in cell lysates were measured with an OPG ELISA kit (USCN, China). Similar proceed were performed using HEK 293 T cells that transfer full length mouse RANKL or human RANKL.

sRANKL = molecular target: T2, sRANKL (Rattus norvegicus, UniProt Q9ESE2, D175N); experiment: STD NMR binding assay with sRANKL; conditions: 100 μM protein, 5 mM compound
T2 construct: (1) sRANKL (rat 159-318 aa); His6-sumo (N, cleaved yes); made in house; host or cells: Escherichia coli BL21 (DE3)
T2 sequence (Q9ESE2 159-318 D175N): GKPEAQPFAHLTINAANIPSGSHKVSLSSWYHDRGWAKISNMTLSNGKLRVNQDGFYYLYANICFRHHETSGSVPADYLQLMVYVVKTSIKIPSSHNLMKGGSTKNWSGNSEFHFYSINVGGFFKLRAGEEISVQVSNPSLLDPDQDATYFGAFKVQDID
Method: For NMR studies, purified sRANKL or L-RANKL protein samples were buffer exchanged into PBS (Gbico, C10010500BT, pH7.4) using a Millipore spin column (1500 × g for 15 min at 4 °C, repeated six times, each time adding fresh PBS and discarding the flow-through). Protein concentration was determined using BCA method according to the procedure of Pierce^TM BCA Protein Assay Kit (Thermo Fisher Scientific). Compound S3-15 powder was dissolved in H2O as a concentration of 10 mM.
Protein saturation transfer difference (STD) experiments were performed on Bruker Avance III 500 (500 MHz) spectrometer (Columbia University) at 300 K using triple-resonance cryogenic probes optimized for proton detection. All experiments were performed using an independent sample for each experimental measurement as a 500 μL sample in NMR tubes with 100 μM protein and […] S3-15 in final concentration. Uniformly, for STD assay all samples were contained 50 μL protein, 200 μL S3-15 (10 mM in H2O), and 250 μL D2O; for S3-15 two-dimensional spectra reference, samples were 50 μL PBS, 200 μL S3-15 (10 mM in H2O) and 250 μL D2O.

[4] = tested on: mRANKL induced osteoclastogenesis; experiment: mRANKL induced osteoclastogenesis assay; assay type: cell-based, mouse; conditions: for OC inhibitory ratio, mRANKL induced (fig. 3d IC50 curve data): replicates

SMILES: CC(=O)/C(=N\Nc1ccccc1C(=O)O)C(=O)Nc1ccccn1 [S3-15]
- Kd [1]: 124 µM
- organ coefficient, Heart (OVX rats; individual animals): 2.652 and 2.903 and 2.602 and 2.757 and 2.485 and 2.813 and 2.658 and 2.708 and 2.583
- organ coefficient, Kidney (OVX rats; individual animals): 4.969 and 4.261 and 5.124 and 5.036 and 4.8723 and 5.304 and 5.021 and 5.76 and 4.3689
- organ coefficient, Liver (OVX rats; individual animals): 19.7988 and 22.7088 and 21.1699 and 21.9894 and 21.577 and 21.8338 and 22.6442 and 26.0414 and 24.0486
- organ coefficient, Lung (OVX rats; individual animals): 3.321 and 3.475 and 4.3001 and 4.037 and 3.68 and 3.867 and 3.796 and 3.612 and 2.629
- organ coefficient, Spleen (OVX rats; individual animals): 1.37 and 1.538 and 1.519 and 1.351 and 1.314 and 1.243 and 1.454 and 1.422 and 1.469
- organ coefficient, Thymus (OVX rats; individual animals): 0.5247 and 0.4616 and 0.2402 and 1.041 and 0.7463 and 1.3304 and 0.3322 and 0.6497 and 0.411
- organ coefficient, Uterus (OVX rats; individual animals): 0.5222 and 0.6316 and 3.058 and 1.43 and 0.2827 and 0.6792 and 0.9495 and 1.366 and 2.466
- body weight (fig. S7d) (OVX rats; week 12, individual animals): 538.3 and 392.8 and 372.2 and 391.4 and 440.6 and 486.3 and 462.8 and 403.8 and 390.8
- body weight (fig. S7d) (OVX rats; week 16, individual animals): 559.2 and 407.9 and 470.2 and 373.7 and 449.4 and 404.7 and 487.3 and 429.1 and 417.2
- body weight (fig. S7d) (OVX rats; week 20, individual animals): 573.2 and 404.5 and 481.5 and 392.5 and 442.6 and 406.7 and 502.6 and 448.2 and 400
- body weight (fig. S7d) (OVX rats; week 24, individual animals): 583.9 and 392.6 and 476.6 and 387.2 and 432.3 and 403.3 and 500.6 and 445.5 and 415.3
- osteoclastogenesis when incubated with Q238A sRANKL ([2]; Q238A sRANKL): cannot block osteoclastogenesis
- Number of OCs ([2]; Q238A sRANKL 100 ng/mL, S3-15 0.3 μM): 268 and 278 and 265
- Number of OCs ([2]; Q238A sRANKL 100 ng/mL, S3-15 3 μM): 250 and 279 and 269
- Number of OCs ([2]; Q238A sRANKL 100 ng/mL, S3-15 10 μM): 265 and 279 and 270
- Number of OCs ([2]; WT RANKL 100 ng/mL, S3-15 0.3 μM): 142 and 135 and 149
- Number of OCs ([2]; WT RANKL 100 ng/mL, S3-15 3 μM): 35 and 57 and 40
- mouse mRANKL and mouse OPG binding ([3]; 293T cells, 1 μM): no effects
- mRANKL-OPG binding signal (fig. S4o) ([3]; OPG+S3-15): 0.9339 and 0.9921 and 0.6577
- STD-NMR binding to sRANKL (sRANKL): binds to sRANKL
- OC inhibitory ratio, mRANKL induced (fig. 3d IC50 curve data) ([4]; 0.0023464 μM): -1.8319 and -1.185 and 3.987
- OC inhibitory ratio, mRANKL induced (fig. 3d IC50 curve data) ([4]; 0.00774313 μM): -0.2155 and 3.341 and 0.431
- OC inhibitory ratio, mRANKL induced (fig. 3d IC50 curve data) ([4]; 0.0255523 μM): 1.724 and 9.483 and -1.8319
- OC inhibitory ratio, mRANKL induced (fig. 3d IC50 curve data) ([4]; 0.0843226 μM): 10.4526 and 18.2112 and 10.1293
- OC inhibitory ratio, mRANKL induced (fig. 3d IC50 curve data) ([4]; 0.278265 μM): 19.8276 and 9.806 and 12.7155
- OC inhibitory ratio, mRANKL induced (fig. 3d IC50 curve data) ([4]; 0.918274 μM): 19.8276 and 9.806 and 12.7155
- OC inhibitory ratio, mRANKL induced (fig. 3d IC50 curve data) ([4]; 3.0303 μM): 46.6595 (2×) and 50.5388
- OC inhibitory ratio, mRANKL induced (fig. 3d IC50 curve data) ([4]; 10 μM): 62.8233 (2×) and 61.5302
- OC inhibitory ratio, mRANKL induced (fig. 3d IC50 curve data) ([4]; 33 μM): 90.3017 and 88.3621 and 89.6552
- IC50 ([4]; Mus musculus, +mRANKL): 4.14 µM
